Assay [1] deals with T1, CXCR4 D193A (Homo sapiens, UniProt P61073, D193A).
T1 construct: expressed in transfected cells
The assay can be described thus: Competitive binding to CXCR4 mutant D193A (12G5, CHO cells). The note with it: TM4, class of reduction vs wild-type CXCR4, 12G5 competition, averages of at least three independent experiments. Here is the method:
(§1) Plasmid pcDNA3-CXCR4 and mutated pcDNA3-CXCR4 were extracted and transfected into CHO cells using Lipofectamine 2000 according to the manufacturer’s guidelines. The selective medium containing G418 at a concentration of 1.2 mg/ml was applied to isolate stably transfected cells. CHO cells expressing wild-type CXCR4 and mutant CXCR4 were obtained using fluorescence-activated cell sorting (FACS).
(§2) All of the CXCR4 mutants were prepared using PCR technology. Briefly, pairs of asymmetrical primers containing the desired amino acid mutations (Supplementary Tables S1 and S2), each complementary to opposite strands of the pcDNA3–CXCR4, were designed for amplification by Q5® High-Fidelity DNA polymerase and the generation of mutated constructs. The methylated pcDNA3–CXCR4 templates were digested by DpnI. The mutated pcDNA3–CXCR4 was transformed into competent E. coli TOP10 for long-term storage and amplification.
(§3) The procedure for the CXCR4 competitive binding experiments was published previously. Briefly, CXCR4 antibody 12G5 (250 ng/ml) was incubated with 5 × 10^5 cells and varying concentrations of unlabeled compounds in a final volume of 100 μl of assay buffer (PBS with 0.5% BSA and 0.05% NaN3) in 96-well plates for 40 min on ice, after being washed with assay buffer once. The cells were incubated with FITC-conjugated second antibody IgG for 30 min on ice, then washed with assay buffer three times. The fluorescence intensity was measured for excitation at 485 nm and emission at 535 nm using multimode plate reader (PerkinElmer). The IC50 values were calculated using graphpad Prism 7. Experiments were performed at least three times.

Assay [2] has as its target T2, CXCR4 H203A (Homo sapiens, UniProt P61073, H203A).
T2 construct: expressed in transfected cells
The experiment in a line: Competitive binding to CXCR4 mutant H203A (12G5, CHO cells). The note with it: TM5, class of reduction vs wild-type CXCR4, 12G5 competition, averages of at least three independent experiments. Here is the method: as §1, §2, §3

Assay [3] addresses T3, CXCR4 Y256A (Homo sapiens, UniProt P61073, Y256A).
T3 construct: expressed in transfected cells
The experiment in a line: Competitive binding to CXCR4 mutant Y256A (12G5, CHO cells). The note with it: TM6, class of reduction vs wild-type CXCR4, 12G5 competition, averages of at least three independent experiments. Here is the method:
as §1, §2, §3

Assay [4] addresses T4, CXCR4 W161A (Homo sapiens, UniProt P61073, W161A).
T4 construct: expressed in transfected cells
The experiment in a line: Competitive binding to CXCR4 mutant W161A (12G5, CHO cells). The conditions noted are these: TM4, class of reduction vs wild-type CXCR4, 12G5 competition, averages of at least three independent experiments. Here is the method: as §1, §2, §3

In assay [5] the target is T5, CXCR4 V112A (Homo sapiens, UniProt P61073, V112A).
T5 construct: expressed in transfected cells
The assay can be described thus: Competitive binding to CXCR4 mutant V112A (12G5, CHO cells). The conditions noted are these: TM3, class of reduction vs wild-type CXCR4, 12G5 competition, averages of at least three independent experiments. Here is the method: as §1, §2, §3

Assay [6] has as its target T6, CXCR4 R30A (Homo sapiens, UniProt P61073, R30A).
T6 construct: expressed in transfected cells
The experiment in a line: Competitive binding to CXCR4 mutant R30A (12G5, CHO cells). Also on record: key to the marks not given beside the values. The conditions noted are these: TM1, class of reduction vs wild-type CXCR4, 12G5 competition, averages of at least three independent experiments. Here is the method:
as §1, §2, §3

Assay [7] has as its target T7, CXCR4 W252A (Homo sapiens, UniProt P61073, W252A).
T7 construct: expressed in transfected cells
The assay can be described thus: Competitive binding to CXCR4 mutant W252A (12G5, CHO cells). The conditions noted are these: TM6, class of reduction vs wild-type CXCR4, 12G5 competition, averages of at least three independent experiments. The protocol: as §1, §2, §3

Assay [8] has as its target T8, CXCR4 H281A (Homo sapiens, UniProt P61073, H281A).
T8 construct: expressed in transfected cells
The assay can be described thus: Competitive binding to CXCR4 mutant H281A (12G5, CHO cells). The note with it: TM7, class of reduction vs wild-type CXCR4, 12G5 competition, averages of at least three independent experiments. The protocol: as §1, §2, §3

Assay [9] deals with T9, CXCR4 W195A (Homo sapiens, UniProt P61073, W195A).
T9 construct: expressed in transfected cells
The assay can be described thus: Competitive binding to CXCR4 mutant W195A (12G5, CHO cells). The conditions noted are these: TM4, class of reduction vs wild-type CXCR4, 12G5 competition, averages of at least three independent experiments. The protocol: as §1, §2, §3

Assay [10] has as its target T10, CXCR4 Y255A (Homo sapiens, UniProt P61073, Y255A).
T10 construct: expressed in transfected cells
The experiment in a line: Competitive binding to CXCR4 mutant Y255A (12G5, CHO cells). The note with it: TM6, class of reduction vs wild-type CXCR4, 12G5 competition, averages of at least three independent experiments. Here is the method: as §1, §2, §3

Assay [11] deals with T11, CXCR4 I284A (Homo sapiens, UniProt P61073, I284A).
T11 construct: expressed in transfected cells
The experiment in a line: Competitive binding to CXCR4 mutant I284A (12G5, CHO cells). The conditions noted are these: TM7, class of reduction vs wild-type CXCR4, 12G5 competition, averages of at least three independent experiments. Here is the method:
as §1, §2, §3

Assay [12] has as its target CXCR4 (Homo sapiens, UniProt P61073). The assay can be described thus: Competitive CXCR4 binding assay (12G5 antibody probe), wild-type CXCR4 transfected CHO cells. Also on record: expressed in transfected cells; Competitive receptor binding activity, wild-type CXCR4 (WT): key to the marks not given beside the values. The note with it: for Competitive receptor binding activity, wild-type CXCR4 (WT): class relative to wild-type, 12G5 competition, stably transfected CHO cells, averages of at least three independent experiments. The protocol: The CXCR4-specific antibody, 12G5 was used as a probe for the competitive CXCR4 binding assay to evaluate the binding activity of CXCR4 antagonists.
Figure 1 Competitive CXCR4 binding curves of eleven CXCR4 antagonists The CXCR4 transfected CHO cells were incubated with different concentrations of antagonists and 250 ng/ml 12G5 antibody. The CXCR4-binding 12G5 antibody was recognized by FITC-conjugated anti-IgG second antibody. The cells treated with only second antibody were used as a negative control (0%) while cells treated with both 12G5 antibody and second antibody were used as a positive control (100%). Cells treated with CXCR4 antagonists were calculated in percentage relative to the positive and negative controls. The data were averages of at least three independent experiments and shown as mean ± standard error of the mean (S.E.M.).
as §3

Assay [13] concerns the target T12, CXCR4 H113A (Homo sapiens, UniProt P61073, H113A).
T12 construct: expressed in transfected cells
The assay can be described thus: Competitive binding to CXCR4 mutant H113A (12G5, CHO cells). The conditions noted are these: TM3, class of reduction vs wild-type CXCR4, 12G5 competition, averages of at least three independent experiments. Here is the method:
as §1, §2, §3

For assay [14], the target named is T13, CXCR4 T117A (Homo sapiens, UniProt P61073, T117A).
T13 construct: expressed in transfected cells
The assay can be described thus: Competitive binding to CXCR4 mutant T117A (12G5, CHO cells). The note with it: TM3, class of reduction vs wild-type CXCR4, 12G5 competition, averages of at least three independent experiments. Here is the method: as §1, §2, §3

Positions of bridges follow the written chain, without caps; N, C: chain ends. Non-standard residues stand in square brackets, D forms with d. Residues, ends and D or L forms follow the SMILES beside them. Chains are numbered I, II in the order given. 2Nal = N[C@@H](Cc1ccc2ccccc2c1)C(=O)O; Lys(iPr) = CC(C)NCCCC[C@H](N)C(=O)O

The term IC50 denotes the concentration needed to halve the response being measured.

Sequence of CXCR4 (P61073 whole entry): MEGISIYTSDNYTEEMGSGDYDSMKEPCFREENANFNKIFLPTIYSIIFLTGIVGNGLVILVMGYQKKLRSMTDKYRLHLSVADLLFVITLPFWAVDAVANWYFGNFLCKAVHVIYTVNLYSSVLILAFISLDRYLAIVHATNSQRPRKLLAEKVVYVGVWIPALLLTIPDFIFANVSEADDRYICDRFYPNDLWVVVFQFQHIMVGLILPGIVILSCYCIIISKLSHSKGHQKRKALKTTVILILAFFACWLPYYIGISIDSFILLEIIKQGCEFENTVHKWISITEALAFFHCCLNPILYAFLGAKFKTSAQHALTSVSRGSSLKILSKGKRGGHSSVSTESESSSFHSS
T1 sequence (P61073 whole entry D193A): as the sequence (P61073 whole entry) above, with D193A counted along it
T7 sequence (P61073 whole entry W252A): as the sequence (P61073 whole entry) above, with W252A counted along it
T9 sequence (P61073 whole entry W195A): as the sequence (P61073 whole entry) above, with W195A counted along it
T5 sequence (P61073 whole entry V112A): as the sequence (P61073 whole entry) above, with V112A counted along it
T10 sequence (P61073 whole entry Y255A): as the sequence (P61073 whole entry) above, with Y255A counted along it
T4 sequence (P61073 whole entry W161A): as the sequence (P61073 whole entry) above, with W161A counted along it
T2 sequence (P61073 whole entry H203A): as the sequence (P61073 whole entry) above, with H203A counted along it
T6 sequence (P61073 whole entry R30A): as the sequence (P61073 whole entry) above, with R30A counted along it
T13 sequence (P61073 whole entry T117A): as the sequence (P61073 whole entry) above, with T117A counted along it
T12 sequence (P61073 whole entry H113A): as the sequence (P61073 whole entry) above, with H113A counted along it
T11 sequence (P61073 whole entry I284A): as the sequence (P61073 whole entry) above, with I284A counted along it
T8 sequence (P61073 whole entry H281A): as the sequence (P61073 whole entry) above, with H281A counted along it
T3 sequence (P61073 whole entry Y256A): as the sequence (P61073 whole entry) above, with Y256A counted along it

As for `CC(C)C[C@@H](N)C(=O)NCC(=O)N[C@H](C)C(=O)N[C@H](CO)C(=O)N[C@H](Cc1c[nH]c2ccccc12)C(=O)N[C@H](Cc1c[nH]cn1)C(=O)N[C@H](CCCNC(=N)N)C(=O)N1CCC[C@@H]1C(=O)N[C@H](CC(=O)O)C(=O)N[C@H](CCCCN)C(=O)NCCCC[C@@H](NC(=O)[C@H]1CCCN1C(=O)[C@@H](CC(C)C)NC(=O)[C@H]1CCCN1C(=O)[C@@H](CCCNC(=N)N)NC(=O)[C@@H](CCCCN)NC(=O)[C@@H](CCC(N)=O)NC(=O)[C@@H](Cc1ccc(O)cc1)NC(=O)CNC(=O)[C@@H](CC(C)C)NC(=O)[C@@H](CS)NC(=O)[C@@H](CS)NC(=O)[C@@H](CCCCN)NC(=O)[C@@H](CC(=O)O)NC(=O)[C@H]1CCCN1C(=O)[C@@H](CCCNC(=N)N)NC(=O)[C@@H](Cc1c[nH]cn1)NC(=O)[C@@H](Cc1c[nH]c2ccccc12)NC(=O)[C@@H](CO)NC(=O)[C@@H](C)NC(=O)CNC(=O)[C@H](N)CC(C)C)C(=O)O` [HC4319] (I: H-[dL]G[dA][dS][dW][dH][dR][dP][dD][dK][dC][dC][dL]G[dY][dQ][dK][dR][dP][dL][dP][dK]-OH / II: H-[dL]G[dA][dS][dW][dH][dR][dP][dD][dK]; amide I:22-II:C; N-terminus and C-terminus assumed), the “Competitive receptor binding activity, CXCR4 D193A” value in assay [1] was “++ (10–29% reduction compared with wild-type CXCR4)”. Also, in assay [2], the “Competitive receptor binding activity, CXCR4 H203A” value is listed as “+++”. Besides, in assay [3], the “Competitive receptor binding activity, CXCR4 Y256A” value is reported as “+++”. Moreover, in assay [4], the “Competitive receptor binding activity, CXCR4 W161A” value is listed as “+++”. For the same molecule, the “Competitive receptor binding activity, CXCR4 V112A” value in assay [5] is listed as “+++”. In assay [6], the “Competitive receptor binding activity, CXCR4 R30A” value is on record as “+++”. Besides, the “Competitive receptor binding activity, CXCR4 W252A” value in [7] was “+++”. In addition, in assay [8], the “Competitive receptor binding activity, CXCR4 H281A” value was “++ (10–29% reduction compared with wild-type CXCR4)”. Also, the “Competitive receptor binding activity, CXCR4 W195A” value in assay [9] is “++ (10–29% reduction compared with wild-type CXCR4)”. Further, the “Competitive receptor binding activity, CXCR4 Y255A” value in assay [10] was “++ (10–29% reduction compared with wild-type CXCR4)”. For the same molecule, in assay [11], the “Competitive receptor binding activity, CXCR4 I284A” value was “+++”. Also, the “Competitive receptor binding activity, wild-type CXCR4 (WT)” value in assay [12] was “+++”. In addition, in assay [13], the “Competitive receptor binding activity, CXCR4 H113A” value was “++ (10–29% reduction compared with wild-type CXCR4)”. Further, the “Competitive receptor binding activity, CXCR4 T117A” value in assay [14] is given as “+++”.

Consider `CC(C)NCCCC[C@H](NC(=O)[C@H]1CCC(=O)N[C@@H](Cc2ccccc2)C(=O)N[C@@H](Cc2ccc(O)cc2)C(=O)N[C@@H](CCCCNC(C)C)C(=O)N[C@H](CCCNC(=N)N)C(=O)N[C@@H](Cc2ccc3ccccc3c2)C(=O)NCC(=O)N1)C(N)=O` [LY2510924] (FY[Lys(iPr)][dR][2Nal]G[dE][Lys(iPr)]-NH2; lactam N-7 (inferred)), for which the “Competitive receptor binding activity, CXCR4 D193A” value in assay [1] is “+++”. The “Competitive receptor binding activity, CXCR4 H203A” value in assay [2] was “+ (30–60% reduction compared with wild-type CXCR4)”. Moreover, the “Competitive receptor binding activity, CXCR4 Y256A” value in assay [3] is given as “++ (10–29% reduction compared with wild-type CXCR4)”. Further, the “Competitive receptor binding activity, CXCR4 W161A” value in assay [4] is reported as “++ (10–29% reduction compared with wild-type CXCR4)”. In addition, in assay [5], the “Competitive receptor binding activity, CXCR4 V112A” value is “++ (10–29% reduction compared with wild-type CXCR4)”. In addition, the “Competitive receptor binding activity, CXCR4 R30A” value in [6] is listed as “+++”. Also, the “Competitive receptor binding activity, CXCR4 W252A” value in assay [7] is given as “++ (10–29% reduction compared with wild-type CXCR4)”. In assay [8], the “Competitive receptor binding activity, CXCR4 H281A” value is “++ (10–29% reduction compared with wild-type CXCR4)”. For the same molecule, in [9], the “Competitive receptor binding activity, CXCR4 W195A” value is given as “++ (10–29% reduction compared with wild-type CXCR4)”. The “Competitive receptor binding activity, CXCR4 Y255A” value in [10] is “++ (10–29% reduction compared with wild-type CXCR4)”. In addition, in [11], the “Competitive receptor binding activity, CXCR4 I284A” value is “++ (10–29% reduction compared with wild-type CXCR4)”. Besides, the IC50 in [12] (CXCR4 transfected CHO cells, 250 ng/ml 12G5, 40 min on ice, FITC second antibody, mean ± S.E.M. of at least three independent experiments, SEM, read-out: IC50 (nM), inhibition of 12G5 binding to CXCR4) turned out to be 135 ± 63.9 nM. For the same molecule, in [12], the “Competitive receptor binding activity, wild-type CXCR4 (WT)” value was “+++”. The “Competitive receptor binding activity, CXCR4 H113A” value in [13] was “+ (30–60% reduction compared with wild-type CXCR4)”. The “Competitive receptor binding activity, CXCR4 T117A” value in assay [14] is recorded as “+ (30–60% reduction compared with wild-type CXCR4)”.
